The results in this text go back to patent US7442788B2, “Antisense molecules and method of controlling expression of gene function by using the same” (Japan Science and Technology Corporation, priority 2001, dated 2008).

The nature of data set [1]: Association constant with boric acid from CD peak decrement against borax/boric acid concentration, curve fitting. The format is binding. As to the method: However, there is no direct evidence as yet that this change in base moiety orientation is induced by borate ester bond formation. Therefore, the dependency of the change in base moiety orientation on the concentration of borax (Na2B4O7) was investigated at pH 7.2. […] The association constant of 5′-NH2-Urd with boric acid was determined by plotting the decrement in peak height against the boric acid (borax) concentration, followed by curve fitting. Supposing that borax give 4 equivalents of boric acid in aqueous solution, the association constant of 5′-NH2-Urd with boric acid was calculated at 75 M^−1.
In addition to the above-mentioned borax, boric acid (B(OH)3) was also used and the addition test was carried out in the same manner. In this case, too, decreases in peak height were observed, and the association constant was calculated at 49 M^−1. In addition, changes in orientation due to ester formation were also observed with methylboric acid and phenylboric acid.
As is evident from FIG. 8a, almost the same change as that attained by addition of 50 mM of borax at pH 7.2 was obtained at pH 8.8 only by addition of 2 mM of borax. […] The association constant 5′-NH2-Urd with boric acid was calculated at 600 M^−1, which is greater by one order than at pH 7.2.

A short description of data set [2]: Circular dichroism (CD) spectrum, molar ellipticity at about 270 nm as measure of base moiety orientation (syn/anti). The format is physicochemical. Conditions: for change of [θ]ext / CD peak from phosphate buffer to borate buffer (borax): phosphate vs borate buffer. The text has this:
The molar ellipticity ([θ]max) at about 270 nm in the CD spectrum of a nucleoside reflects two factors, namely the orientation of the base moiety to the furanose moiety and the puckering of the furanose ring. It is known that the molar ellipticity at about 270 nm markedly decreases in the syn orientation as compared with the anti orientation. […]
[…] […] The rate of syn orientation induction in Urd in the presence of boric acid was smaller as compared with IPU but this can be explained by the presence of an equilibrium between the borate ester formation and the dissociation.
Specifically, CD spectra were measured with Urd, 5′-aminouridine (5′-NH2-Urd) and 5′-aminoisopropylideneuridine (5′-NH2-IPU) in phosphate buffer (pH 7.2) and with 5′-NH2-Urd in borate buffer (pH 7.2) for the investigation of uracil moiety orientations. […] This is presumably due to a syn orientation-inducing effect of hydrogen bond formation between the oxygen atom of the 2-position carbonyl group of the nucleoside base moiety and the 5′-position amino hydrogen atom. Under the measurement conditions in this case, the 5′-position amino group of 5′-NH2-Urd occurs in an ammonium ion state and presumably serves as a good hydrogen bond donor. […] This is probably due to two synergistic effects, namely the fixation of the sugar moiety to the 2′,3′-planar structure and the hydrogen bond formation between the 5′-position amino group and the 2-position carbonyl group of the base moiety.
Then, on the supposition that Urd in phosphate buffer ([θ]max value=9700) is in an ideal 100% anti orientation and 5′-NH2-IPU in phosphate buffer ([θ]max value=1200) in an ideal 100% syn orientation, the orientations of the base moiety (uracil) of uridine and uridine derivatives (5′-NH2-Urd, IPU, 5′-NH2-IPU) were evaluated under different conditions (in phosphate buffer, in borate buffer).
(Circular dichroism is the unequal absorption of left and right circularly polarised light.)

The test system of the next data set is d(A)8. Description: Melting point (Tm) of complex with oligonucleotide by UV absorbance change. The format is binding. Conditions: phosphate pH 7.2. How it is done: (§1) Specifically, the PRNA2 (octamer) (17) was mixed with the oligonucleotide octamer shown in Table 3, the melting point (Tm) was determined by measuring the resulting change in absorbance on a UV spectrum, and the ability of the PRNA2 (octamer) (17) to hybridize with a nucleic acid (complex forming ability) was evaluated from that melting point. Further, for examining the influence of boric acids on the PRNA2 (octamer)-DNA hybrid formation and on the stability thereof, melting point measurements were carried out using the PRNA2 (octamer) (17) and d(A)8 as the binding target oligonucleotide to the PRNA2, namely a complementary compound to (T)8, with and without addition of borax (20 mM), and the melting points were compared. A control run was carried out in the same manner using (T)8 as the binding target oligonucleotide in lieu of d(A) 8.

In the next data set the test system is (T)8. Description: Melting point (Tm) of complex with oligonucleotide by UV absorbance change, control run. The format is binding. Conditions: phosphate pH 7.2. How it is done:
as §1

The subject of another data set is d(A)12. Put plainly: Melting temperature (Tm) of dodecameric chimera nucleic acid with complementary DNA. The format is binding. As to the method:
Using the above dodecameric chimera nucleic acid and a DNA having a complementary base sequence, the melting temperature Tm was measured in phosphate buffer allowing predominance of the anti orientation in the PRNA moiety.

In the next data set the test system is d(C)8. Put plainly: Melting temperature (Tm) of homopurine PRNA-DNA complex. The format is binding.
Another data set has as its system 5′-d(ACCAAAAA)-3′. Description: Melting temperature (Tm) of PRNA (octamer)-DNA hybrid by UV absorbance change, control experiment. The format is binding. Conditions: for Tm: binding target 5′d(ACCAAAAA)3′. How it is done: (§2) Specifically, the PRNA (octamer NH2-UIIUUUUU-Lys-OH) was mixed with each of oligonucleotide octamers specified in Table 6, the melting temperature (Tm) was determined by measuring the resulting change in absorbance on UV spectra, and the ability of the PRNA (octamer) to hybridize with the nucleic acid (complex forming ability) was evaluated based on the resultant melting temperature. Furthermore, the effects of a borate on the PRNA (octamer)-DNA hybrid formation and the stability thereof were investigated using the PRNA (octamer) and 5′-d(AAAAACCA)-3′, a complementary compound as its binding target oligonucleotide, and measuring the melting temperatures with and without addition of borax (20 mM) to the phosphate buffer and comparing them. A control experiment was carried out in the same manner using 5′-d(ACCAAAAA)-3′ as the binding target oligonucleotide in lieu of 5′-d(AAAAACCA)-3′.

For the next data set, the system named is 5′-d(AAAAACCA)-3′. Description: Melting temperature (Tm) of PRNA (octamer)-DNA hybrid by UV absorbance change. Conditions: binding target 5′d(AAAAACCA)3′. As to the method:
as §2

Data set [3] deals with polyadenylic acid (poly(A)). Put plainly: Complex formation by continuous absorbance (260 nm) plotting, control by borax and sugars. The format is binding. How it is done:
Therefore, poly(Nγ-(5′-deoxy-5′-uridyl)-L-glutamine) PRNA1 (Production Example 1) was examined for its complex forming ability using polyadenylic acid (poly(A)) as its complementary strand. […] Then, borax was added to this PRNA1- and poly(A)-containing phosphate buffer solution, whereupon the absorbance (260 nm) increased in a concentration-dependent manner until a certain concentration, as shown by the plots ▪ in FIG. 20(a). Upon addition of borax in an amount about 3 times the amount of the PRNA1, the absorbance (260 nm) increased to be the original absorbance prior to addition of poly(A). […] Furthermore, this borate ester was in equilibrium with its anionic form even at pH 7.2.

“And” between values parts separate entries of the source, which are not always exact repeats. Identical values can stand only once.

With `NC[C@H]1O[C@@H](n2ccc(=O)[nH]c2=O)[C@H](O)[C@@H]1O` [5′-NH2-Urd, 5′-amino-5′-deoxyuridine], the “association constant with boric acid” value in data set [1] (boric acid (B(OH)3) added instead of borax) amounted to 49 M⁻¹; in data set [1] (pH 7.2, borax added, borax supposed to give 4 equivalents of boric acid), 75 M⁻¹; in data set [1] (pH 8.8, borax added) it was 600 M⁻¹. For the same compound, the “proportion of syn orientation of the base moiety” value in [2] (8 mM borax added, phosphate buffer pH 7.2) is 83 % syn; in data set [2] (8 mM borax, pH adjusted from 7.2 to 6.2), 58 % syn; in [2] (borate buffer (pH 7.2)), 95 % syn; in data set [2] (phosphate buffer (pH 7.2), no borax, Urd = 100% anti, 5′-NH2-IPU = 100% syn supposed), 55 % syn and 54 % syn. Besides, the Molar ellipticity ([θ]ext) at about 270 nm in data set [2] (borate buffer (pH 7.2)) came to 1600 deg·cm2/dmol; in [2] (phosphate buffer (pH 7.2)), 5100 deg·cm2/dmol. Moreover, the “[θ]max” value in data set [2] (borate buffer (pH 7.2)) was 1600 deg cm^2dmol^−1; in data set [2] (phosphate buffer (pH 7.2)), 5100 deg cm^2dmol^−1. Besides, the “change of CD peak at about 270 nm / orientation upon addition of borax” value in data set [2] (pH 6.0) is “almost no peak decreases were observed”; in data set [2] (pH 8.8), “syn orientation is induced more effectively at pH 8.8”. In addition, the “Δ[θ]ext” value in data set [2] (phosphate buffer minus borate buffer) amounted to 3500.
As to HCl.(isoGln(5′U))8-Lys-OH [PRNA2 (17)], the Tm is below 0 °C with d(A)8 (binding target d(A)8, 20 mM borax); “below 0 °C” with d(A)8 (binding target d(A)8, 20 mM borax, listed as PRNA2 (octamer)); 52.8 °C in the data set on d(A)8 (binding target d(A)8, no additive); below 0 °C in the data set on (T)8 (binding target (T)8, 20 mM borax); below 0 °C with (T)8 (binding target (T)8, no additive).
Regarding “NH2-UUUUUUUUTTTT-3′: chimeric molecule dodecamer, PRNA(Urd) octamer amide-bonded to thymidine tetramer”, the “change of [θ]ext / CD peak from phosphate buffer to borate buffer (borax)” value in [2] was “[θ]ext decreased”. The Tm was below 0 °C in the data set with d(A)12 (binding target d(A)12, 20 mM borax); below 0 °C with d(A)12 (binding target d(A)12, 20 mM borax, listed as (U)8DNA(T)4); 42.5 °C in the data set with d(A)12 (binding target d(A)12, no additive, phosphate buffer pH 7.2). In addition, the “Tm gain of the complex over the DNA-DNA complex” value in the data set on d(A)12 (no additive) amounted to 19.3 °C.
On to “NH2-isoGln(5′I)-isoGln(5′I)-isoGln(5′I)-isoGln(5′I)-isoGln(5′I)-isoGln(5′I)-isoGln(5′I)-isoGln(5′I)-Lys-OH [NH2-IIIIIIII-Lys-OH]”, for which the Tm with d(C)8 (binding target d(C)8, 20 mM borax) was below −5 °C; with d(C)8 (binding target d(C)8, no additive), 4.8 °C.
“NH2-isoGln(5′U)-isoGln(5′I)-isoGln(5′I)-isoGln(5′U)-isoGln(5′U)-isoGln(5′U)-isoGln(5′U)-isoGln(5′U)-Lys-OH [NH2UIIUUUUU-Lys-OH]”: the Tm is below 0 °C with 5′-d(ACCAAAAA)-3′ (20 mM borax); 6.2 °C in the data set with 5′-d(ACCAAAAA)-3′ (no additive); below 0 °C with 5′-d(AAAAACCA)-3′ (20 mM borax); “lower than 0 °C” with 5′-d(AAAAACCA)-3′ (20 mM borax, listed as PRNA (octamer)); 7.8 °C in the data set with 5′-d(AAAAACCA)-3′ (no additive, 1/30 M phosphate buffer). The “lowering of Tm with 5′-d(ACCAAAAA)-3′ in lieu of 5′-d(AAAAACCA)-3′” value in the data set on 5′-d(ACCAAAAA)-3′ (no additive) is 1.6 °C. In data set [2], the “change of [θ]ext / CD peak from phosphate buffer to borate buffer (borax)” value is “marked decrease”.
On to “Poly(N^γ-(5′-deoxy-5′-uridyl)-L-glutamine) [PRNA1]”, for which, in data set [3] (borax 6 times the amount of PRNA1), the “amount of xylose giving perfect 1:1 complex formation” value was “about 20 times that of the PRNA1”. For the same compound, the “absorbance at 260 nm after addition of D(+)-xylose” value in data set [3] (borax 6 times the amount of PRNA1, decrease from 1.03) turned out to be 0.88. Further, the “effect of D(+)-glucose in lieu of D(+)-xylose” value in data set [3] (borax-containing phosphate buffer with poly(A)) was “the complex is formed”. Besides, in [3] (borax-free phosphate buffer pH 7.2, decrease from 1), the “absorbance at 260 nm after addition of poly(A)” value amounted to 0.88. For the same compound, the “amount of borax restoring the original absorbance (complete dissociation of complex)” value in data set [3] (phosphate buffer with PRNA1 and poly(A)) is on record as “about 3 times the amount of the PRNA1”.
